# From PubChem BioAssay (NCI)
#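 Dose response: 5 concentrations. Exposure: 48 h. Format: 96-well plates. Endpoint: linear interpolation; highest concentration if not reached. Definition used: TGI = concentration required for complete inhibition of growth.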
# Columns and labels:
# Assay in all cases: NCI-60 cell line screen, 48 h
# [1] = test system: A549 NSCLC
# [2] = test system: ACHN renal
# [3] = test system: CCRF-CEM leukemia
# [4] = test system: HS 578T breast
# [5] = test system: HT29 colon
# [6] = test system: K-562 leukemia
# [7] = test system: MDA-MB-231 breast
# [8] = test system: NCI-H23 lung
# [9] = test system: OVCAR-4 ovarian
# [10] = test system: OVCAR-8 ovarian
# [11] = test system: SF-295 CNS
# [12] = test system: SF-539 CNS
# [13] = test system: SK-MEL-28 melanoma
# [14] = test system: SK-MEL-5 melanoma
# [15] = test system: SN12C renal
# [16] = test system: SNB-75 CNS
# [17] = test system: SR leukemia
# [18] = test system: T-47D breast
# [19] = test system: U251 CNS
# [20] = test system: UACC-62 melanoma
SMILES,TGI [1],TGI [2],TGI [3],TGI [4],TGI [5],TGI [6],TGI [7],TGI [8],TGI [9],TGI [10],TGI [11],TGI [12],TGI [13],TGI [14],TGI [15],TGI [16],TGI [17],TGI [18],TGI [19],TGI [20]
Cc1ccc(/C=C2\Cc3cccc(C)c3C2=O)c(C(=O)O)c1,> 100 µM,88.1 µM,> 100 µM,> 100 µM,> 100 µM,> 100 µM,> 100 µM,> 100 µM,52.9 µM,> 100 µM,> 100 µM,> 100 µM,> 100 µM,> 100 µM,> 100 µM,> 100 µM,> 100 µM,> 100 µM,> 100 µM,
O=c1c2cc([N+](=O)[O-])ccc2n2n1CCCC2,> 100 µM,> 100 µM,> 100 µM,> 100 µM,> 100 µM,> 100 µM,> 100 µM,> 100 µM,> 100 µM,> 100 µM,> 100 µM,> 100 µM,> 100 µM,> 100 µM,> 100 µM,> 100 µM,> 100 µM,> 100 µM,> 100 µM,> 100 µM
CC(=N\N=C\c1ccccn1)/C(C)=N/N=C(C)/C(C)=N/N=C/c1ccccn1,> 100 µM,> 100 µM,> 100 µM,> 100 µM,> 100 µM,,> 100 µM,> 100 µM,> 100 µM,> 100 µM,> 100 µM,> 100 µM,> 100 µM,> 100 µM,> 100 µM,> 100 µM,> 100 µM,> 100 µM,> 100 µM,
COc1ccc(-n2c(N)c(C#N)c(C#N)c2-c2ccccc2)cc1,> 100 µM,> 100 µM,> 100 µM,> 100 µM,> 100 µM,,> 100 µM,> 100 µM,93.2 µM,> 100 µM,> 100 µM,> 100 µM,,> 100 µM,> 100 µM,68.6 µM,> 100 µM,> 100 µM,> 100 µM,> 100 µM
COC(=O)/C=C(/OC)[C@H](C)[C@H](/C=C/c1csc(-c2csc(C(C)C)n2)n1)OC,> 100 µM,> 100 µM,> 100 µM,> 100 µM,> 100 µM,> 100 µM,> 100 µM,> 100 µM,> 100 µM,> 100 µM,> 100 µM,> 100 µM,> 100 µM,19.9 µM,> 100 µM,> 100 µM,> 100 µM,> 100 µM,> 100 µM,> 100 µM
COc1ccc2c(ccc3c(COC(=O)NC(C)C)c(COC(=O)NC(C)C)n(C)c32)c1,55.2 µM,7.13 µM,> 100 µM,38.2 µM,26.5 µM,> 100 µM,34.2 µM,16 µM,28 µM,34.2 µM,46.2 µM,20.9 µM,,28.4 µM,,15.8 µM,> 100 µM,82.6 µM,28.5 µM,18.4 µM
COc1cc(Nc2nc3ccc(C(F)(F)F)cc3nc2C(=O)O)cc(OC)c1OC,> 100 µM,51.5 µM,> 100 µM,54.8 µM,63.3 µM,> 100 µM,53.9 µM,45.5 µM,52.6 µM,72.1 µM,81.9 µM,86.5 µM,80.3 µM,> 100 µM,38.1 µM,> 100 µM,> 100 µM,78.3 µM,36.7 µM,38.2 µM
Nc1ncnc2c1ncn2[C@H]1CC[C@@H](NO)C1,> 100 µM,> 100 µM,> 100 µM,> 100 µM,,> 100 µM,> 100 µM,> 100 µM,> 100 µM,> 100 µM,> 100 µM,> 100 µM,> 100 µM,> 100 µM,> 100 µM,> 100 µM,> 100 µM,> 100 µM,> 100 µM,> 100 µM
Cn1/c(=N\N=C(\CNCCO)[C@@H](O)[C@@H]2OC(c3ccccc3)OC[C@H]2O)sc2ccccc21 (stereo partly drawn),31.1 µM,44 µM,47.4 µM,31.1 µM,38.6 µM,33.3 µM,29.8 µM,37.5 µM,52.8 µM,37 µM,33.9 µM,32.7 µM,33.2 µM,28.5 µM,35.2 µM,32.3 µM,41 µM,47 µM,31.8 µM,31.2 µM
O=c1c2cc([N+](=O)[O-])ccc2nc2n1CCCCC2,> 100 µM,> 100 µM,> 100 µM,> 100 µM,> 100 µM,> 100 µM,> 100 µM,> 100 µM,> 100 µM,> 100 µM,> 100 µM,> 100 µM,> 100 µM,> 100 µM,> 100 µM,> 100 µM,> 100 µM,> 100 µM,> 100 µM,> 100 µM
C1=NCCNCCNCCN=Cc2ccccc2OCc2cccc(n2)COc2ccccc21,> 100 µM,83.4 µM,55.1 µM,> 100 µM,51.6 µM,> 100 µM,> 100 µM,> 100 µM,> 100 µM,84.4 µM,94 µM,82.3 µM,> 100 µM,> 100 µM,> 100 µM,> 100 µM,88.9 µM,> 100 µM,66.3 µM,> 100 µM
CN(C)CCCCN1c2ccccc2Sc2ccc(C(=O)c3ccccc3)cc21,7.22 µM,7.19 µM,6.61 µM,9.69 µM,3.88 µM,3.36 µM,5.2 µM,34.2 µM,10.8 µM,7.91 µM,4.82 µM,6.59 µM,3.72 µM,3.42 µM,9.84 µM,6.92 µM,> 100 µM,13 µM,7.52 µM,6.39 µM
Cc1nc2c(o1)C(=O)c1ccccc1C2=Nc1ccc(N2CCOCC2)cc1,17.8 µM,18.9 µM,> 36.8 µM,12.5 µM,60.9 µM,11.6 µM,8.84 µM,7.62 µM,12.4 µM,> 27.7 µM,5.98 µM,6 µM,7.69 µM,3.2 µM,10.2 µM,5.03 µM,13.3 µM,19 µM,14.4 µM,3.73 µM
Cc1nc2ccccc2c(=O)n1NC(=S)Nc1ccc(Cl)cc1[N+](=O)[O-],> 100 µM,> 100 µM,> 100 µM,> 100 µM,> 100 µM,> 100 µM,> 100 µM,> 100 µM,> 100 µM,> 100 µM,> 100 µM,> 100 µM,> 100 µM,> 100 µM,> 100 µM,> 100 µM,> 100 µM,> 100 µM,> 100 µM,> 100 µM
COCn1c(C)c(C)c2c(=O)oc(N(C)C)nc21,> 100 µM,> 100 µM,> 100 µM,> 100 µM,> 100 µM,> 100 µM,> 100 µM,> 100 µM,> 100 µM,> 100 µM,> 100 µM,> 100 µM,> 100 µM,> 100 µM,> 100 µM,> 100 µM,> 100 µM,> 100 µM,> 100 µM,> 100 µM
c1ccc(C(=NNc2cnc3ccccc3n2)c2ccccn2)cc1,15 µM,12.6 µM,28.3 µM,37.9 µM,17.7 µM,> 67.5 µM,26.9 µM,14.1 µM,28 µM,2.68 µM,12.8 µM,17.4 µM,55.5 µM,16 µM,24 µM,31.4 µM,10.9 µM,33.5 µM,23.8 µM,20.2 µM
C/C(=N\NC(=S)N(C)CCN(C)C(=S)N/N=C(\C)c1ccccn1)c1ccccn1,13.8 µM,11.4 µM,12.1 µM,> 100 µM,24.4 µM,29.1 µM,13.1 µM,28.5 µM,14.8 µM,7.32 µM,19.6 µM,11.8 µM,19.8 µM,2.16 µM,6.91 µM,7.59 µM,3.71 µM,19 µM,18.9 µM,8.07 µM
CN1CCN(CCCCN2c3ccccc3Sc3cc(N=[N+]=[N-])ccc32)CC1,3.93 µM,4.56 µM,4.66 µM,5.02 µM,3.03 µM,3.04 µM,4.14 µM,18.7 µM,7.5 µM,3.85 µM,5.65 µM,8.31 µM,3.52 µM,3.04 µM,6.46 µM,10.1 µM,> 100 µM,31.9 µM,7.83 µM,3.92 µM
COC(=O)/C=C(\S/C(=N\n1cc(C(=O)OC)c(C(=O)OC)c1-c1ccc(C)cc1)c1ccc(C)cc1)C(=O)OC,51.8 µM,5.78 µM,,62.8 µM,9.67 µM,,11.7 µM,11.5 µM,3.37 µM,34.9 µM,> 100 µM,33 µM,12.5 µM,27.1 µM,11.8 µM,31.4 µM,67.3 µM,> 100 µM,14.1 µM,25.9 µM
CC(=O)O[C@H]1C(=O)[C@@]2(C)[C@H]([C@H](OC(=O)c3ccccc3)[C@]3(O)C[C@H](OC(=O)[C@H](O)[C@@H](NC(=O)C(C)(C)C)c4ccccc4)C(C)=C1C3(C)C)[C@]1(OC(C)=O)CO[C@@H]1C[C@@H]2O,> 10 µM,> 10 µM,> 10 µM,0.389 µM,> 10 µM,> 10 µM,> 10 µM,> 10 µM,> 10 µM,> 3.84 µM,1.61 µM,0.413 µM,> 10 µM,> 10 µM,> 10 µM,2.19 µM,> 2.58 µM,> 10 µM,> 3.9 µM,> 10 µM
CN(C)/C=N/NC(=O)/C(C#N)=C/N(C)C,> 100 µM,> 100 µM,> 100 µM,> 100 µM,> 100 µM,> 100 µM,> 100 µM,> 100 µM,> 100 µM,> 100 µM,> 100 µM,> 100 µM,> 100 µM,> 100 µM,> 100 µM,> 100 µM,> 100 µM,> 100 µM,> 100 µM,> 100 µM
[O-][n+]1onc2c1/C(=N/O)CCC2,> 100 µM,> 100 µM,> 100 µM,> 100 µM,> 100 µM,> 100 µM,> 100 µM,> 100 µM,> 100 µM,> 100 µM,> 100 µM,> 100 µM,> 100 µM,> 100 µM,> 100 µM,> 100 µM,> 100 µM,> 100 µM,,> 100 µM
CCOC(=O)C(NCc1cccc(C(F)(F)F)c1)(NC(=O)CC)C(F)(F)F (stereo not drawn),> 100 µM,> 100 µM,> 100 µM,> 100 µM,> 100 µM,> 100 µM,> 100 µM,> 100 µM,> 100 µM,> 100 µM,> 100 µM,> 100 µM,> 100 µM,> 100 µM,> 100 µM,> 100 µM,> 100 µM,> 100 µM,> 100 µM,> 100 µM
O=c1[nH]c(=O)n(C2CC(O)C(CO)O2)cc1OCC1CCCCC1 (stereo not drawn),> 100 µM,> 100 µM,> 100 µM,> 100 µM,> 100 µM,> 100 µM,> 100 µM,> 100 µM,> 100 µM,> 100 µM,> 100 µM,,> 100 µM,> 100 µM,> 100 µM,> 100 µM,> 100 µM,> 100 µM,> 100 µM,> 100 µM
